Data taken from PubChem BioAssay AID248 (DTP/NCI, 2004).
Where “and” joins values, the source holds several entries; their conditions need not be identical. Identical values can stand only once. Toxic doses and inconclusive results are not listed. Cut-off read from the data, not from the text of the source: active = T/C of 150% or more; inactive = T/C below 125%.

System: L1210 leukemia ip in BDF1 mice, survival T/C
Experiment: NCI In Vivo Anticancer Drug Screen. Data for tumor model L1210 Leukemia (intraperitoneal) in B6D2F1 (BDF1) mice
Conditions: endpoint: mean survival time, higher = longer survival
Procedure, shortened: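 Tumor was transplanted into mice, which were then dosed with test compound or vehicle alone. Survival was recorded for each group, and the treated figure was expressed relative to the control figure.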

[1] = dose: 100.0 mg/kg/injection, schedule: Q04DX002 (ip), vehicle: Klucel (hydroxypropylcellulose) (HPC)
[2] = dose: 200.0 mg/kg/injection, schedule: Q04DX002 (ip), vehicle: Klucel (hydroxypropylcellulose) (HPC)
[3] = dose: 400.0 mg/kg/injection, schedule: Q04DX002 (ip), vehicle: Klucel (hydroxypropylcellulose) (HPC)
[4] = dose: 100.0 mg/kg/injection, schedule: Q01DX001 (ip), vehicle: Klucel (hydroxypropylcellulose) (HPC)
[5] = dose: 100.0 mg/kg/injection, schedule: Q04DX003 (ip), vehicle: Klucel (hydroxypropylcellulose) (HPC)
[6] = dose: 200.0 mg/kg/injection, schedule: Q01DX001 (ip), vehicle: Klucel (hydroxypropylcellulose) (HPC)
[7] = dose: 200.0 mg/kg/injection, schedule: Q04DX003 (ip), vehicle: Klucel (hydroxypropylcellulose) (HPC)
[8] = dose: 400.0 mg/kg/injection, schedule: Q01DX001 (ip), vehicle: Klucel (hydroxypropylcellulose) (HPC)
[9] = dose: 400.0 mg/kg/injection, schedule: Q04DX003 (ip), vehicle: Klucel (hydroxypropylcellulose) (HPC)
[10] = dose: 100.0 mg/kg/injection, schedule: Q01DX009 (ip), vehicle: Klucel (hydroxypropylcellulose) (HPC)
[11] = dose: 200.0 mg/kg/injection, schedule: Q01DX009 (ip), vehicle: Klucel (hydroxypropylcellulose) (HPC)
[12] = dose: 400.0 mg/kg/injection, schedule: Q01DX009 (ip), vehicle: Klucel (hydroxypropylcellulose) (HPC)
[13] = dose: 100.0 mg/kg/injection, schedule: Q01DX001 (ip), vehicle: saline
[14] = dose: 200.0 mg/kg/injection, schedule: Q01DX001 (ip), vehicle: saline
[15] = dose: 400.0 mg/kg/injection, schedule: Q01DX001 (ip), vehicle: saline
[16] = dose: 100.0 mg/kg/injection, schedule: Q04DX003 (ip), vehicle: saline
[17] = dose: 200.0 mg/kg/injection, schedule: Q04DX003 (ip), vehicle: saline
[18] = dose: 100.0 mg/kg/injection, schedule: Q01DX009 (ip), vehicle: saline
[19] = dose: 100.0 mg/kg/injection, schedule: Q04DX003 (ip), vehicle: saline with Tween-80
[20] = dose: 200.0 mg/kg/injection, schedule: Q04DX003 (ip), vehicle: saline with Tween-80
[21] = dose: 400.0 mg/kg/injection, schedule: Q04DX003 (ip), vehicle: saline with Tween-80

Measured: T/C

Cc1ccc(C(C)O)cc1 (stereo unspecified)
inactive: [1] 98 % of control | [2] 98 % of control | [3] 98 % of control

O=C(NC/C(Br)=C/Br)C(F)(F)F
inactive: [4] 113 % of control | [5] 90 % of control | [6] 105 % of control | [7] 88 % of control | [8] 105 % of control | [9] 90 % of control

CCOC(=O)C1(c2ccccc2)CCN(CCC(=O)c2ccc(F)cc2)CC1
inactive: [4] 98 % of control | [6] 95 % of control

CCOC(=O)CCc1cc(C)[nH]c1C(=O)OCC
inactive: [4] 93 % of control | [5] 101 % of control | [6] 93 % of control | [7] 96 % of control | [8] 101 % of control | [9] 98 % of control

CSc1ccc(NC(=O)Oc2ccc(NC(C)=O)cc2)cc1
inactive: [10] 98 % of control | [11] 106 % of control | [12] 98 % of control

Cc1ccc2c(c1[N+](=O)[O-])C(=O)c1ccccc1C2=O
inactive: dose: 50.0 mg/kg/injection, schedule: Q01DX001 (ip), vehicle: saline 96 % of control | [13] 90 % of control | [10] 100 % of control | [1] 104 % of control | [14] 90 % of control | [2] 110 % of control | [15] 90 % of control | [12] 111 % of control | [3] 96 % of control

COC(=O)C1C(=O)OC(C)(C)C1c1ccccc1 (stereo unspecified)
inactive: dose: 44.0 mg/kg/injection, schedule: Q01DX001 (ip), vehicle: saline 95 % of control | dose: 66.0 mg/kg/injection, schedule: Q01DX001 (ip), vehicle: saline 101 % of control | [13] 100 % of control | dose: 150.0 mg/kg/injection, schedule: Q01DX001 (ip), vehicle: saline 103 % of control | [14] 91 % of control | [15] 91 % of control

C=Cc1cc[n+](Cc2ccc(C[n+]3ccc(C=C)cc3)cc2)cc1
inactive: dose: 100.0 mg/kg/injection, schedule: Q01DX001 (ip), vehicle: carboxymethylcellulose (CMC) 91 % of control | dose: 200.0 mg/kg/injection, schedule: Q01DX001 (ip), vehicle: carboxymethylcellulose (CMC) 91 % of control | dose: 400.0 mg/kg/injection, schedule: Q01DX001 (ip), vehicle: carboxymethylcellulose (CMC) 87 % of control

Cc1ccc(S(=O)(=O)N(CCCc2c(N)nc(N)nc2-c2ccccc2)c2ccccc2)cc1
inactive: [16] 100 % of control | [17] 97 % of control

Cc1ccc(S)cc1
inactive: [18] 87 % of control

CCC(CC)(CC)c1ccc2ccccc2c1
inactive: [13] 98 % of control | [14] 96 % of control | [15] 106 % of control

CC(C)CCCCc1c[nH]c(=O)[nH]c1=O
inactive: dose: 100.0 mg/kg/injection, schedule: Q01DX009 (ip), vehicle: saline with Tween-80 107 % of control | [19] 94 % of control | dose: 200.0 mg/kg/injection, schedule: Q01DX009 (ip), vehicle: saline with Tween-80 104 % of control | [20] 97 % of control | dose: 400.0 mg/kg/injection, schedule: Q01DX009 (ip), vehicle: saline with Tween-80 101 % of control | [21] 92 % of control

CC12CCC(=O)C=C1CCC1C2C(=O)CC2(C)C1CCC2(O)C(=O)COC(=O)c1cc([N+](=O)[O-])cc([N+](=O)[O-])c1N1CC1 (stereo unspecified)
inactive: dose: 60.0 mg/kg/injection, schedule: Q01DX015 (ip), vehicle: saline 94 % of control | dose: 90.0 mg/kg/injection, schedule: Q01DX015 (ip), vehicle: saline 96 % of control | dose: 135.0 mg/kg/injection, schedule: Q01DX015 (ip), vehicle: saline 92 % of control | dose: 200.0 mg/kg/injection, schedule: Q01DX015 (ip), vehicle: saline 100 % of control

COc1ccc(OC)c(CC(CC(=O)O)(C(=O)O)C(=O)O)c1
inactive: [5] 91 % of control | [7] 96 % of control | [9] 96 % of control

O=S(=O)(Nc1nccs1)c1ccc(NN=Nc2c(Cl)cc(Cl)cc2Cl)cc1
inactive: [10] 96 % of control | [11] 96 % of control | [12] 97 % of control

COc1cccc2c1C(=O)c1c(OC)c(CO)cc(OC)c1C2=O
inactive: dose: 12.5 mg/kg/injection, schedule: Q01DX009 (ip), vehicle: water 93 % of control | dose: 25.0 mg/kg/injection, schedule: Q01DX009 (ip), vehicle: water 91 % of control | dose: 50.0 mg/kg/injection, schedule: Q01DX009 (ip), vehicle: water 87 % of control | dose: 100.0 mg/kg/injection, schedule: Q01DX009 (ip), vehicle: water 97 % of control | dose: 200.0 mg/kg/injection, schedule: Q01DX009 (ip), vehicle: water 95 % of control

CCOC(=O)NNC(=S)Nc1cccc(C(F)(F)F)c1
inactive: dose: 100.0 mg/kg/injection, schedule: Q04DX002 (ip), vehicle: saline with Tween-80 111 % of control | dose: 200.0 mg/kg/injection, schedule: Q04DX002 (ip), vehicle: saline with Tween-80 108 % of control

O=c1[nH]c2ccsc2c(=O)n1OS(=O)(=O)c1ccccc1
inactive: [10] 100 % of control | [11] 100 % of control | [12] 88 % of control

O=C(NNc1ccccc1)C1C2CC3OC(=O)C1C3C2 (stereo unspecified)
inactive: [16] 93 % of control | [17] 98 % of control | dose: 400.0 mg/kg/injection, schedule: Q04DX003 (ip), vehicle: saline 96 % of control

CCOC(=O)CCc1[nH]c2nnc(C)cc2c1[N+](=O)[O-]
inactive: dose: 56.3 mg/kg/injection, schedule: Q04DX002 (ip), vehicle: Klucel (hydroxypropylcellulose) (HPC) 100 % of control | dose: 112.5 mg/kg/injection, schedule: Q04DX002 (ip), vehicle: Klucel (hydroxypropylcellulose) (HPC) 106 % of control | dose: 225.0 mg/kg/injection, schedule: Q04DX002 (ip), vehicle: Klucel (hydroxypropylcellulose) (HPC) 91 % of control

BrCc1cccc2cccc(CBr)c12
inactive: dose: 50.0 mg/kg/injection, schedule: Q04DX003 (ip), vehicle: Klucel (hydroxypropylcellulose) (HPC) 97 % of control | [4] 113 % of control | [5] 101 % of control | [6] 111 % of control | [7] 103 % of control

O=[N+]([O-])c1cccc(OCCCCOc2ccc(S(=O)(=O)F)cc2)c1
inactive: dose: 50.0 mg/kg/injection, schedule: Q01DX001 (ip), vehicle: Klucel (hydroxypropylcellulose) (HPC) 92 % of control | [4] 94 % of control | [6] 90 % of control

CC(C)(C)OC[CH2][Hg][I]
inactive: dose: 12.5 mg/kg/injection, schedule: Q04DX002 (ip), vehicle: Klucel (hydroxypropylcellulose) (HPC) 96 % of control | dose: 25.0 mg/kg/injection, schedule: Q04DX002 (ip), vehicle: Klucel (hydroxypropylcellulose) (HPC) 104 % of control

CN1C(=O)N(C)C(=O)C(O)(C2(O)C(=O)N(C)C(=O)N(C)C2=O)C1=O
inactive: dose: 9.38 mg/kg/injection, schedule: Q01DX001 (ip), vehicle: other 94 % of control | dose: 18.75 mg/kg/injection, schedule: Q01DX001 (ip), vehicle: other 94 % of control | dose: 37.5 mg/kg/injection, schedule: Q01DX001 (ip), vehicle: other 101 % of control

NCCc1cc(O)c(O)c(S(=O)(=O)c2ccc(N)cc2)c1
inactive: dose: 75.0 mg/kg/injection, schedule: Q01DX009 (ip), vehicle: saline 107 % of control | dose: 150.0 mg/kg/injection, schedule: Q01DX009 (ip), vehicle: saline 105 % of control

O=C(C(F)F)C(F)F
inactive: dose: 50.0 mg/kg/injection, schedule: Q01DX009 (ip), vehicle: saline 91 % of control | [18] 91 % of control | [16] 106 % of control | [17] 104 % of control

CC[P+](CC=C(C)C)(c1ccccc1)c1ccccc1
inactive: dose: 0.78 mg/kg/injection, schedule: Q04DX003 (ip), vehicle: Klucel (hydroxypropylcellulose) (HPC) 96 % of control | dose: 1.56 mg/kg/injection, schedule: Q04DX003 (ip), vehicle: Klucel (hydroxypropylcellulose) (HPC) 94 % of control | dose: 3.12 mg/kg/injection, schedule: Q04DX003 (ip), vehicle: Klucel (hydroxypropylcellulose) (HPC) 113 % of control and 88 % of control

COc1ccc(COC(=O)Oc2ccc(Cl)cc2)cc1OC
inactive: [19] 96 % of control | [20] 96 % of control | [21] 101 % of control
